Laboratory results as given in patent US20100120762A1, “Triazine derivatives as inhibitors of phosphodiesterases” (WYETH, priority 2008, published 2010).
Entries after “also recorded” stand apart in the source; their conditions may differ.

Experiments:
[1] = tested on: mice; assay: Light and dark box test; type: in vivo, mouse; details: 5 min exploration, FIG. 2
Text: The light and dark box is an established animal model of anxiety (Crawley, 1985). The light and dark box consists of two chambers (each 30×30 cm) that are connected by an opening. There is an aversive chamber with white walls that is brightly lit (600 lux) and a dark chamber with black walls that is only lit by an infrared lamp ([…]). Untreated mice predominately stay in the dark chamber whereas mice treated with an anxiolytic compound go more often into the light chamber resulting in an increased number of transitions between the boxes and increased time in the light box. In addition the distance traveled in the dark chamber is regarded as an activity-related parameter. For the experiment, mice are placed in the light box after the pre-treatment time. Recording time starts when the mouse enters the dark box for the first time. Then the animal has 5 min to explore the two chambers. The behavior of the mice is recorded by video and analyzed by VideoMot 2 (TSE systems, Germany). […] Results are analyzed by t-test (two groups) or one way analysis of variance (ANOVA) when several groups are compared. Tukey test is used for individual comparison. P<0.05 is regarded as significant.

[2] = tested on: mice; assay: Forced swim test; type: in vivo, mouse; details: immobility recorded during last 4 min of 6 min, FIG. 1
Experimental: The forced swim test is an established animal model of depression (Yacoubi et al., 2001). Mice which are forced to swim in a restricted area from which they cannot escape will rapidly cease attempts to escape and adopt a characteristic immobile posture which can be readily identified and timed. Immobility is taken as depression-related behaviour in the animal (Porsolt, 1979). For the test a glass cylinder (height: 20 cm, internal diameter: 15 cm) containing 11 cm water maintained at 23° C. is used. On the day of experiment the mice are forced to swim in the water for 6 min and the immobility time is recorded during the last 4 min of the 6-min-period. Afterwards animals are removed from the water, dried with a paper towel and put under infrared light. […] Results are analyzed by t-test (two groups) or one way analysis of variance (ANOVA) when several groups are compared. Tukey test is used for individual comparison. P<0.05 is regarded as significant.

[3] = molecular target: T1, PDE2A (NM002599) (Homo sapiens, UniProt O00408); assay: Inhibition of recombinant PDE2A (expressed in baculovirus/SF21-cells); type: biochemical; details: recombinant PDE2A, 0.5 μM [3H]-cAMP, 1000 nM cGMP, 37° C., 30 minutes, SPA; read-out: PDE2A IC50
T1 construct: made in house; host or cells: baculovirus / SF21 insect cells
Outline: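 Human PDE2A membrane fraction from baculovirus-infected SF21 cells; 0.5 μM [3H]-cAMP with 1000 nM cGMP as activator in 50 mM Tris-HCl/5 mM MgCl2 pH 7.4, 30 min at 37° C, SPA read-out. Non-specific activity measured without cGMP; IC50 by 2-parameter Hill fit.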

[4] = tested on: Female Wistar-rats; assay: Novel object recognition test; type: in vivo, rat; details: MK-801 0.025 mg/kg intraperitoneally, compound given orally 30 min prior to the test session, FIG. 3
Experimental: The novel object recognition is an animal model of learning and memory (Rutten et al., 2006a, 2006b).
The novel object recognition is performed in glass aquaria (40×60×40 cm) that have 3 black walls and one transparent wall. The floor consists of black, antislip PVC. Objects of different material (iron, plastic, coated hardwood) and forms and similar size are used for the experiment. The objects are positioned 10 cm from the wall and 35-40 cm from each other. Female Wistar-rats are used for this experiment.
One day before the experiment rats have 15 min to habituate to the arena and two objects.
On the first day of the experiment rats are placed into the arena and have five min to explore two equal objects. To disturb the learning process, MK-801 at 0.025 mg/kg is administered intraperitoneally on the first day of the experiment 30 min before the test starts.
On the second day of the experiment (24 h later) rats are again placed into the arena and have 5 min to explore one of the old objects and a novel object. […]
The following parameters are recorded: • 1. the time the rats spent with each object on the first day • 2. the time the rats spent with each object on the second day • 3. percent of time rats spent with the novel object on the second day […]
Results are analyzed by t-test (two groups) or one way analysis of variance (ANOVA) when several groups are compared. […]

[5] = molecular target: T2, PDE10A1 (AB 020593) (Homo sapiens, UniProt Q9Y233); assay: Inhibition of recombinant PDE10A (baculovirus/SF21 system); type: biochemical; details: recombinant cytosolic PDE10A, 0.1 μM [3H]-cAMP, 37° C., 30 minutes, SPA; read-out: PDE10A IC50
T2 construct: made in house; host or cells: baculovirus / SF21 insect cells (gene synthesized by Entelechon GmbH)
Outline: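 Cytosolic PDE10A1 expressed in SF21 cells via baculovirus, incubated with 0.1 μM [3H]-cAMP in 50 mM Tris-HCl/5 mM MgCl2, pH 7.4, 30 min at 37 °C. SPA-bead scintillation read-out, with enzyme-free wells as background. IC50 from Hill plot, 2-parameter model.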

T1 sequence (O00408 whole entry): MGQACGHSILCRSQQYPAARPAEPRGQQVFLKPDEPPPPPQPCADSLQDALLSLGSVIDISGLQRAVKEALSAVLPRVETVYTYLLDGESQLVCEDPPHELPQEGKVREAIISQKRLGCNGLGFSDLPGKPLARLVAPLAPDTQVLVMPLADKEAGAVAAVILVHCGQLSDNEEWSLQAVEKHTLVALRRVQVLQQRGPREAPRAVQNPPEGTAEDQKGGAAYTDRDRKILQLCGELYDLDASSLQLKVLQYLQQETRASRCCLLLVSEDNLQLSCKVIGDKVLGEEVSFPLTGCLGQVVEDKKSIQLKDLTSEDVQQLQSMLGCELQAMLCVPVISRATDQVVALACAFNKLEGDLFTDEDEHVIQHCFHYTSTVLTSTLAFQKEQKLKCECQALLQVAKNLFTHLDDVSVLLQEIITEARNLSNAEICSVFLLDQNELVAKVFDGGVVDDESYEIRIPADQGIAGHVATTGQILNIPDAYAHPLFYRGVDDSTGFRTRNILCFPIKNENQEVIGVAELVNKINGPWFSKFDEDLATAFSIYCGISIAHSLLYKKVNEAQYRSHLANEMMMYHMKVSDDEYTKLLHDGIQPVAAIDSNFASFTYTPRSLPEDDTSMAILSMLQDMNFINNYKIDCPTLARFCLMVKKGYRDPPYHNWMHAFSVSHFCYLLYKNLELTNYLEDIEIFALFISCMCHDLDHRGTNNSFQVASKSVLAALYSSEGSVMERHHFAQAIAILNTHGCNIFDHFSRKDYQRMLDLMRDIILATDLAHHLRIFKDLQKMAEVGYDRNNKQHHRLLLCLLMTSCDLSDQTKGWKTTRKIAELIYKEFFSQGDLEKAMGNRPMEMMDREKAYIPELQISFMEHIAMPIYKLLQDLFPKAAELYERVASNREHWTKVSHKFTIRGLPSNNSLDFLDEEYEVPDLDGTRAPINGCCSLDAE
T2 sequence (Q9Y233 other isoform, or with tags, fused parts or gaps): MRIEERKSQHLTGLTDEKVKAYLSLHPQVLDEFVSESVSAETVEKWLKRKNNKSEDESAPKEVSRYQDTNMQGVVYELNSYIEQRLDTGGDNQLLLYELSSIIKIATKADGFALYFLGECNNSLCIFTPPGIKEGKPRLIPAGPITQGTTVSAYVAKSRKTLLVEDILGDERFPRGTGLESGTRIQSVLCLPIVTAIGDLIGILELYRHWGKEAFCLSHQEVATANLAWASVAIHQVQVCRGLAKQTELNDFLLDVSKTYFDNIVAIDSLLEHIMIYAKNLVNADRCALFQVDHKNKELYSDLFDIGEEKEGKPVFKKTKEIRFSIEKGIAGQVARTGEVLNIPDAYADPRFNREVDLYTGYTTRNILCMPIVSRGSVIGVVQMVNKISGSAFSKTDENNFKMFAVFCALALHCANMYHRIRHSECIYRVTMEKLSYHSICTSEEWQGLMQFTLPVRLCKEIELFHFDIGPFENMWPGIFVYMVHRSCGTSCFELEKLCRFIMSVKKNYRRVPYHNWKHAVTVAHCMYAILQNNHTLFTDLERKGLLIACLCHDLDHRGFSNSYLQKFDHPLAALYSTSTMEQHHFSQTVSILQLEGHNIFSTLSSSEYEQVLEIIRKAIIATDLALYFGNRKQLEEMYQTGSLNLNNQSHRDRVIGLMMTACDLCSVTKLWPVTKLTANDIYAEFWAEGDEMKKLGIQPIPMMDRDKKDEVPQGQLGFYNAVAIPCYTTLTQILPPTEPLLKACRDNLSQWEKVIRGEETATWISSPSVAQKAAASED

| IC50 [3] [µM] | IC50 [5] [µM] | melting point [°C] | SMILES | effect in the light and dark box test (anxiolytic) [1] | effect in the forced swim test (antidepressant; immobility time) [2] | effect in the novel object recognition test (cognition enhancing) [4] |
| --- | --- | --- | --- | --- | --- | --- |
| 0.00383 | 0.0209 | – | COc1ccc2nnc3c(C)nc(-c4ccccc4Cl)n3c2n1 [Example 6, 1-(2-chlorophenyl)-8-methoxy-3-methyl-imidazo[5,1-c]-pyrido[2,3-e][1,2,4]triazine] | anxiolytic effect; also recorded: significant effect | antidepressant effect; also recorded: significant effect | significant effect |
| > 10 | > 1 | 213 to 214 | COc1ccc2nnc3c(C)ncn3c2n1 [Example 5, 8-methoxy-3-methyl-imidazo[5,1-c]-pyrido[2,3-e][1,2,4]triazine] | – | – | – |
| 0.0965 | 0.454 | 190 to 193 | COc1ccc2nnc3cnc(-c4ccccc4Cl)n3c2n1 [Example 8, 1-(2-chlorophenyl)-8-methoxy-imidazo[5,1-c]pyrido[2,3-e][1,2,4]triazine] | – | – | – |
| > 0.5 | > 0.5 | 225 to 227 | COc1ccc2nnc3c(-c4ccccc4)ncn3c2n1 [Example 124, 8-Methoxy-3-phenyl-imidazo[5,1-c]pyrido[2,3-e][1,2,4]triazine] | – | – | – |
| 2.98 | 2.89 | 159 to 162 | COc1ccc2nnc3cnc(C(C)C)n3c2n1 [Example 7, 1-isopropyl-8-methoxy-imidazo[5,1-c]-pyrido[2,3-e][1,2,4]triazine] | – | – | – |
| > 1 | 4.46 | 167 to 168 | CCc1ncc2nnc3ccc(OC)nc3n12 [Example 3, 1-ethyl-8-methoxy-imidazo[5,1-c]pyrido[2,3-e][1,2,4]triazine] | – | – | – |
| 0.00513 | 0.0157 | 251 to 254 | Cc1nc(-c2ccccc2Cl)n2c1nnc1ccc(N3CCOCC3)nc12 [Example 123, 1-(2-Chloro-phenyl)-3-methyl-8-morpholin-4-yl-imidazo[5,1-c]pyrido[2,3-e][1,2,4]triazine] | – | – | – |
| 2.2 | 3.81 | 216 to 220 | COc1ccc2nnc3c(C)nc(-c4ccccn4)n3c2n1 [Example 10, 8-methoxy-3-methyl-1-(2-pyridyl)-imidazo[5,1-c]-pyrido[2,3-e][1,2,4]triazine] | – | – | – |
| 0.136 | > 0.5 | 155 | COc1ccc2nnc3c(C4CC4)nc(-c4cccc(Cl)c4)n3c2n1 [Example 121, 1-(3-Chloro-phenyl)-3-cyclopropyl-8-methoxy-imidazo[5,1-c]pyrido[2,3-e][1,2,4]triazine] | – | – | – |
| 0.0303 | 0.0129 | 143.5 to 145 | COc1ccc2nnc3c(C)nc(CC(C)C)n3c2n1 [Example 13, 8-methoxy-3-methyl-1-(iso-butyl)-imidazo[5,1-c]-pyrido[2,3-e][1,2,4]triazine] | – | – | – |
| 0.0893 | 0.131 | 214 to 217 | COc1ccc2nnc3c(C)nc(-c4ccccc4)n3c2n1 [Example 4, 8-methoxy-3-methyl-1-phenyl-imidazo[5,1-c]-pyrido[2,3-e][1,2,4]triazine] | – | – | – |
